Laboratory results: US20210169883A1, “METHOD OF TREATING AGGRESSION WITH OREXIN RECEPTOR ANTAGONISTS” (Icahn School of Medicine at Mount Sinai, priority 2018, published 2021)
Entries after “also recorded” stand apart in the source; their conditions may differ. Where two headings read alike, the source gives them in different places.

Tests used:
male CD-1 mice [1] = assay: Object recognition test; assay type: in vivo, mouse; settings: 30 mg/kg EMPA or 20 mg/kg seltorexant IP; one-way ANOVA
Procedure: (§1) Vehicle comparison for these drugs consisted of 75% DMSO in sterile water alone. SR-9659 was dissolved in 20% DMSO in sterile water. Vehicle comparison for this drug consisted of 20% DMSO in water alone. All drugs were administered intraperitoneally (IP) 30 minutes before behavioral testing. All injection volumes were limited to 100 μl.
Mice were presented with two different objects in a first (training) session, and then one of the two objects was replaced with a new object during a second (test) session. The time spent investigating each object provided an index of object recognition memory. This was calculated by subtracting the time spent with the familiar object from the time spent with the novel object.

[2] = test system: aggressive (AGG) male CD-1 mice; assay type: in vivo, mouse
Procedure: Aggression screening was performed as previously described by utilizing the resident intruder (RI) test (Golden et al., 2016b). After a minimum of one week of habituation to home cages, experimental mice were exposed to a novel C57BL/6J intruder for 3 min daily over 3 consecutive days. Each intruder presentation was performed in the home cage of the experimental mouse between 12-3 PM daily under white light conditions. During RI sessions the cage top was removed to allow for unobstructed viewing and video recording of sessions. The duration and number of screening sessions were selected to prevent induction of stress- and anxiety-related behaviors in experimental mice (Golden et al., 2016b). All RI sessions were video recorded with a digital color video camera. Two blind observers recorded (1) the latency to initial aggression and (2) the total duration of aggression. The initiation of aggression was defined by the first clear physical antagonistic interaction initiated by the resident mouse (usually a bite), not including grooming or pursuit behavior. Aggression was considered completed when the resident mouse had reoriented away from the intruder following the initiation of attack. This definition allows for slight breaks (less than 5 s) in continuous physical interaction within an aggressive bout, assuming the resident mouse has remained oriented towards the intruder throughout.
Vehicle comparison for these drugs consisted of 75% DMSO in sterile water alone. SR-9659 was dissolved in 20% DMSO in sterile water. Vehicle comparison for this drug consisted of 20% DMSO in water alone. All drugs were administered intraperitoneally (I.P.) 30 minutes before behavioral testing. All injection volumes were limited to 100 μl.
First, mice were screened for three consecutive days in the RI test. Only AGGs were selected for subsequent pharmacology experiments, as it was hypothesized that treatment with orexin antagonists would reduce aggression. […] 24 hours following the last RI test, mice were treated again with either drug or vehicle and anxiety and locomotion were assessed using the open field test.

male CD-1 mice [3] = assay: Social recognition test; assay type: in vivo, mouse; settings: 30 mg/kg EMPA or 20 mg/kg seltorexant IP; one-way ANOVA
Procedure: as §1
Mice were presented with two conspecific mice in a first (training) session, and then one of the two conspecific mice was replaced with an unfamiliar mouse in a second (test) session. The time spent by the test mouse investigating each conspecific mouse provided and index of social memory. This was calculated by subtracting the time spent with the novel mouse from the time spent with the familiar mouse.

[4] = test system: aggressive (AGG) CD-1 mice; assay: Resident intruder (RI) test, acute systemic EMPA (Example 1); assay type: in vivo, mouse
Procedure: Aggression screening was performed as previously described by utilizing the resident intruder (RI) test (6). After a minimum of one week of habituation to home cages, experimental mice were exposed to a novel C57BL/6J intruder for 3 min daily over 3 consecutive days. Each intruder presentation was performed in the home cage of the experimental mouse between 12-3 PM daily under white light conditions. During RI sessions the cage top was removed to allow for unobstructed viewing and video recording of sessions. The duration and number of screening sessions were selected to prevent induction of stress- and anxiety-related behaviors in experimental CD-1 or F1 hybrid mice (6). All RI sessions were video recorded with a digital color video camera. Two blind observers recorded (1) the latency to initial aggression and (2) the total duration of aggression. The initiation of aggression was defined by the first clear physical antagonistic interaction initiated by the resident mouse (usually a bite), not including grooming or pursuit behavior. Aggression was considered completed when the resident mouse had reoriented away from the intruder following the initiation of attack. This definition allows for slight breaks (less than 5 s) in continuous physical interaction within an aggressive bout, assuming the resident mouse has remained oriented towards the intruder throughout. […]

[5] = test system: aggressive (AGG) CD-1 mice; assay: Aggression conditioned place preference (CPP), systemic EMPA (Example 1); assay type: in vivo, mouse; settings: EMPA 30 mg/kg I.P., vs vehicle, between-subjects
Procedure: The aggression CPP protocol was carried out according to Golden et al. (6). Briefly, this task consisted of three phases: pre-test, acquisition (conditioning), and test. Mice were acclimated to the testing facility for 1 h before all testing. All phases were conducted under red light and sound-attenuated conditions. The CPP apparatus (Med Associates) consisted of two unique conditioning chambers with a neutral middle zone that allowed for unbiased entry into either conditioning chamber at the initiation of each trial. During the pre-test phase, mice were placed into the middle chamber of the conditioning apparatus and allowed to freely explore the apparatus for 20 min. There were no group differences in bias for either chamber, and conditioning groups were balanced in an unbiased fashion to account for pre-test preference. The acquisition phase consisted of three consecutive days with two conditioning trials each day for a total of 6 acquisition trials. Morning trials (between 8-10 AM) and afternoon trials (between 3-5 PM) consisted of experimental mice confined to one chamber for 10 min while in the presence or absence of a novel C57BL/6J intruder mouse. All groups were counterbalanced for the conditioning chamber. […] Total locomotor activity was also recorded to ensure equal exploratory behavior between groups. […]

male CD-1 mice [6] = assay: Object placement test (spatial memory); assay type: in vivo, mouse; settings: 30 mg/kg EMPA or 20 mg/kg seltorexant IP; one-way ANOVA
Procedure: as §1
Mice were presented with two of the same object in a first (training) session, and then one of the two objects was moved to a different location in the arena during a second (test) session. The time spent investigating each object provided an index of spatial memory. This was calculated by subtracting the time spent with the object in the familiar location from the time spent with the object in the novel location.

[7] = cited from earlier work; for abuse potential: human, in vivo
OX1R = target: T1, OX1R (Homo sapiens, UniProt O43613); settings: less potent; cited from earlier work
T1 sequence (O43613 1-425): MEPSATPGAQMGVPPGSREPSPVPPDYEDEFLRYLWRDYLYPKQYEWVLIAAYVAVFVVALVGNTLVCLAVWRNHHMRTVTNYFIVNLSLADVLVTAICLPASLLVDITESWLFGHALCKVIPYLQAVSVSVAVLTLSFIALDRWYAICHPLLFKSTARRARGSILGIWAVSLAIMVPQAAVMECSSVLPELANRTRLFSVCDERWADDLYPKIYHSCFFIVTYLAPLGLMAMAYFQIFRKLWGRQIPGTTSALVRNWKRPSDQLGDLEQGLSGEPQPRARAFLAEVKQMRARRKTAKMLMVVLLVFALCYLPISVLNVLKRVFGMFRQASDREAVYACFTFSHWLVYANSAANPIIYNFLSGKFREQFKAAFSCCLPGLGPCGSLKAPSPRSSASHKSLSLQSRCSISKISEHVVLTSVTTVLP

OX2R = target: T2, OX2R (Homo sapiens, UniProt O43614); settings: cited from earlier work
T2 sequence (O43614 1-444): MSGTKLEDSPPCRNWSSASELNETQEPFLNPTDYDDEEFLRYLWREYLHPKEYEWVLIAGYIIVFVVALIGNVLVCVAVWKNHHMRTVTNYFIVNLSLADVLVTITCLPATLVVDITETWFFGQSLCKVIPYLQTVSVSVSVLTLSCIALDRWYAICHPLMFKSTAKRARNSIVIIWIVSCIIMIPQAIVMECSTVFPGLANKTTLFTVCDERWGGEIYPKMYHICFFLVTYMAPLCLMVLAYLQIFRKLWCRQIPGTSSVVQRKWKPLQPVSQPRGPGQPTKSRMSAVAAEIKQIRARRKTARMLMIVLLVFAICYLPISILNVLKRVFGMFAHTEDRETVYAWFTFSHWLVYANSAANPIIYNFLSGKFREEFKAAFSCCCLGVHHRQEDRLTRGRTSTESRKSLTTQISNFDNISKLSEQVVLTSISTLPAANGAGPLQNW

[8] = test system: putative glutamatergic LHb neurons; assay: Slice optogenetic stimulation of LHb GAD2 neurons recording; assay type: cell-based, mouse
[9] = three days of RI, daily I.P. 30 min before test, EMPA 30 mg/kg, seltorexant 20 mg/kg, suvorexant 20 mg/kg

Molecule: CCN(Cc1cccnc1)C(=O)CN(c1ccc(OC)nc1)S(=O)(=O)c1ccccc1C [EMPA, N-ethyl-2-[(6-methoxy-pyridin-3-yl)-(toluene-2-sulphonyl)-amino]-N-pyridin-3-ylmethyl-acetamide]
- time spent with each object compared to vehicle treatment (object recognition memory, FIG. 18C) (male CD-1 mice [1]): did not alter
- effects of OxR2 antagonism on aggression, EMPA versus seltorexant ([2]; over the three days of RI): virtually indistinguishable
- latency to attack [2, 9]: increased
- total duration of attack [2, 9]: reduced
- time spent with each mouse compared to vehicle treatment (social recognition, FIG. 18A) (male CD-1 mice [3]): did not alter
- attack duration in RI test ([4]; EMPA 30 mg/kg I.P. 25 min before test, vs vehicle, within-subjects): reduced
- aggression (in RI) ([4]; systemic EMPA, 30 mg/kg, acute): reduces aggression; also recorded: reduced
- aggression CPP [5]: reduced
- time spent with each object compared to vehicle treatment (spatial memory, object placement, FIG. 18B) (male CD-1 mice [6]): did not alter

Molecule: Cc1cc(C)nc(N2CC3CN(C(=O)c4c(F)cccc4-n4nccn4)CC3C2)n1 (stereo not shown) [seltorexant]
- time spent with each object compared to vehicle treatment (object recognition memory, FIG. 18C) (male CD-1 mice [1]): did not alter
- effects of OxR2 antagonism on aggression, EMPA versus seltorexant ([2]; mouse, in vivo): virtually indistinguishable
- latency to attack ([2]; mouse, in vivo): increased
- total duration of attack ([2]; mouse, in vivo): reduced
- time spent with each mouse compared to vehicle treatment (social recognition, FIG. 18A) (male CD-1 mice [3]): did not alter
- time spent with each object compared to vehicle treatment (spatial memory, object placement, FIG. 18B) (male CD-1 mice [6]): did not alter
- abuse potential [7]: low abuse potential

Molecule: Cc1ccc(-n2nccn2)c(C(=O)N2CCN(c3nc4cc(Cl)ccc4o3)CC[C@H]2C)c1 [suvorexant]
- reduction / attenuation of aggressive behavior ([2]; RI test, doses tested): some attenuation of aggression
- number of mice that attacked, drug vs vehicle ([2]; any day of RI, suvorexant 20 mg/kg I.P., SR-9659 I.P.): no differences
- latency to attack [2, 9]: only altered attack latency and duration on day 3
- total duration of attack [2, 9]: only altered attack latency and duration on day 3
- abuse potential [7]: low abuse potential
- tolerability in patient populations ([7]; variety of patient populations): well tolerated

Molecule: orexin-B
- potency in activating OX1R relative to orexin-A (OX1R): 10 fold
- potency towards OX2R relative to orexin-A (OX2R): equipotent

Molecule: picrotoxin
- optically elicited monosynaptic inhibitory currents in putative glutamatergic LHb neurons [8]: completely blocked
